Some results are limits rather than exact numbers.

Chain of human α7 nAChR (P36544 23-502 limits assumed): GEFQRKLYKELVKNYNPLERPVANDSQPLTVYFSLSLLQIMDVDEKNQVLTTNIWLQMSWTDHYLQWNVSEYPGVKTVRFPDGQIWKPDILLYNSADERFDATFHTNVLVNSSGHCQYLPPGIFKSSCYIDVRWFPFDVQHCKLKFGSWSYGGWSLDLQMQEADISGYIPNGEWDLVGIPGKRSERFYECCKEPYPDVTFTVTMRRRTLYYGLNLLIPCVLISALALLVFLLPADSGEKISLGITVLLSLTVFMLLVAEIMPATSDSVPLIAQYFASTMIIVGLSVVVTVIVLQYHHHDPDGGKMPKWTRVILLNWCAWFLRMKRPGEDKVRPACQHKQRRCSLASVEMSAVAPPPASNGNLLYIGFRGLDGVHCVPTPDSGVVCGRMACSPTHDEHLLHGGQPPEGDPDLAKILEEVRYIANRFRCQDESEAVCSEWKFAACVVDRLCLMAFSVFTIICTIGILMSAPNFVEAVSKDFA

The first test addresses human α7 nAChR (Homo sapiens (Human), UniProt P36544). Description: cell-based.
Conditions: not given
For the compound `O=C(NC1CN2CCC1CC2)c1ccc(=O)n(-c2nccs2)c1` (centres unmarked) [Example 1, N-(1-azabicyclo[2.2.2]octan-3-yl)-6-oxo-1-(2-thiazolyl)-3-pyridinecarboxamide], the EC50 lay in the range of 100 to 500 nM.
The same measure, in the same setting: with `O=C(N[C@H]1CN2CCC1CC2)c1ccc(=O)n(-c2nccs2)c1` [Example 2, N-[(3R)-1-azabicyclo[2.2.2]octan-3-yl)-6-oxo-1-(2-thiazolyl)-3-pyridinecarboxamide] the figure was 100 to 500 nM; with `O=C(N[C@@H]1CN2CCC1CC2)c1ccc(=O)n(-c2nccs2)c1` [Example 3, N-[(3S)-1-azabicyclo[2.2.2]octan-3-yl)-6-oxo-1-(2-thiazolyl)-3-pyridinecarboxamide], 100 to 500 nM.
Still for that read-out and setting: then `O=C(NC1CN2CCC1CC2)c1ccc(=O)n(-c2ccc(-c3ccccc3)cn2)c1` (centres unmarked) [Example 7, N-(1-azabicyclo[2.2.2]octan-3-yl)-6-oxo-1-(5-phenyl-2-pyridine-1-yl)-3-pyridinecarboxamide], with 100 to 500 nM; and `Cc1cnc(-n2cc(C(=O)NC3CN4CCC3CC4)ccc2=O)s1` (centres unmarked) [Example 10, N-(1-azabicyclo[2.2.2]octan-3-yl)-1-(5-methyl-2-thiazolyl)-6-oxo-3-pyridinecarboxamide], with 100 to 500 nM.
Same read-out and setting: with `Cc1cnc(-n2cc(C(=O)N[C@@H]3CN4CCC3CC4)ccc2=O)s1` [Example 12, N-[(3S)-1-azabicyclo[2.2.2]octan-3-yl]-1-(5-methyl-2-thiazolyl)-6-oxo-3-pyridinecarboxamide] the figure was 500 to 1000 nM; with `CCc1cnc(-n2cc(C(=O)NC3CN4CCC3CC4)ccc2=O)s1` (centres unmarked) [Example 13, N-(1-azabicyclo[2.2.2]octan-3-yl)-1-(5-ethyl-2-thiazolyl)-6-oxo-3-pyridinecarboxamide], 100 to 500 nM.
As for `CCc1cnc(-n2cc(C(=O)N[C@@H]3CN4CCC3CC4)ccc2=O)s1` [Example 15, N-[(3S)-1-azabicyclo[2.2.2]octan-3-yl]-1-(5-ethyl-2-thiazolyl)-6-oxo-3-pyridinecarboxamide], the EC50 lay within 100 to 500 nM.
Same read-out and setting: with `CCCc1cnc(-n2cc(C(=O)NC3CN4CCC3CC4)ccc2=O)s1` (centres unmarked) [Example 16, N-(1-azabicyclo[2.2.2]octan-3-yl)-6-oxo-1-(5-propyl-2-thiazolyl)-3-pyridinecarboxamide] the figure was 100 to 500 nM; with `CC(C)c1cnc(-n2cc(C(=O)NC3CN4CCC3CC4)ccc2=O)s1` (centres unmarked) [Example 17, N-(1-azabicyclo[2.2.2]octan-3-yl)-6-oxo-1-(5-propan-2-yl-2-thiazolyl)-3-pyridinecarboxamide], 100 to 500 nM.
Still for that read-out and setting: with `CC(C)c1cnc(-n2cc(C(=O)N[C@@H]3CN4CCC3CC4)ccc2=O)s1` [Example 19, N-[(3S)-1-azabicyclo[2.2.2]octan-3-yl)-6-oxo-1-(5-propan-2-yl-2-thiazolyl)-3-pyridinecarboxamide] the figure was 100 to 500 nM.
Same read-out and setting: then `CC(C)(C)c1cnc(-n2cc(C(=O)NC3CN4CCC3CC4)ccc2=O)s1` (centres unmarked) [Example 20, N-(1-azabicyclo[2.2.2]octan-3-yl)-1-(5-tert-butyl-2-thiazolyl)-6-oxo-3-pyridinecarboxamide], with 100 to 500 nM; and `CC(C)(C)c1cnc(-n2cc(C(=O)N[C@H]3CN4CCC3CC4)ccc2=O)s1` [Example 21, N-[(3R)-1-azabicyclo[2.2.2]octan-3-yl]-1-[5-tert-butyl-2-thiazolyl]-6-oxo-3-pyridinecarboxamide], with 100 to 500 nM; and `CC(C)(C)c1cnc(-n2cc(C(=O)N[C@@H]3CN4CCC3CC4)ccc2=O)s1` [Example 22, N-[(3S)-1-azabicyclo[2.2.2]octan-3-yl]-1-[5-tert-butyl-2-thiazolyl]-6-oxo-3-pyridinecarboxamide], with 500 to 1000 nM.
`O=C(NC1CN2CCC1CC2)c1ccc(=O)n(-c2ncc(C3CCCC3)s2)c1` (centres unmarked) [Example 23, N-(1-azabicyclo[2.2.2]octan-3-yl)-1-(5-cyclopentyl-2-thiazolyl)-6-oxo-3-pyridinecarboxamide] returned an EC50 of 100 to 500 nM.
The same measure, in the same setting: then `O=C(NC1CN2CCC1CC2)c1ccc(=O)n(-c2ncc(C3CCCCC3)s2)c1` (centres unmarked) [Example 24, N-(1-azabicyclo[2.2.2]octan-3-yl)-1-(5-cyclohexyl-2-thiazolyl)-6-oxo-3-pyridinecarboxamide], with 100 to 500 nM; and `O=C(NC1CN2CCC1CC2)c1ccc(=O)n(-c2ncc(-c3ccccc3)s2)c1` (centres unmarked) [Example 25, N-(1-azabicyclo[2.2.2]octan-3-yl)-1-(5-phenyl-2-thiazolyl)-6-oxo-3-pyridinecarboxamide], with 500 to 1000 nM; and `O=C(N[C@H]1CN2CCC1CC2)c1ccc(=O)n(-c2ncc(Cl)s2)c1` [Example 27, N-[(3R)-1-azabicyclo[2.2.2]octan-3-yl]-1-(5-chloro-2-thiazolyl)-6-oxo-3-pyridinecarboxamide], with 100 to 500 nM.
In turn, `O=C(NC1CN2CCC1CC2)c1ccc(=O)n(-c2ncc(Cc3ccccc3)s2)c1` (centres unmarked) [Example 29] had an EC50 of 100 to 500 nM.
`O=C(NC1CN2CCC1CC2)c1ccc(=O)n(-c2nc3ccccc3s2)c1` (centres unmarked) [Example 33, N-(1-azabicyclo[2.2.2]octan-3-yl)-1-(1,3-benzothiazole-2-yl)-6-oxo-3-pyridinecarboxamide] showed an EC50 of 100 to 500 nM.

Staying with this test, now noted: HEK293T/17 cells transfected with human α7 nAChR and RIC3; with PNU-120596; fluorescence relative to 1 μM epibatidine; read-out: EC50 of human α7 nAChR.
With `O=C(NC1CN2CCC1CC2)c1ccc(=O)n(-c2ccc(Cl)cn2)c1` (centres unmarked) [Example 6, N-(1-azabicyclo[2.2.2]octan-3-yl)-1-(5-chloro-2-pyridinyl)-6-oxo-3-pyridinecarboxamide], the EC50 was greater than 1000 nM.
On the same count and under the same terms, with `O=C(NC1CN2CCC1CC2)c1ccc(=O)n(-c2cc(-c3ccccc3)no2)c1` (centres unmarked) [Example 9, N-(1-azabicyclo[2.2.2]octan-3-yl)-6-oxo-1-[3-phenyl-5-isoxazolyl)-3-pyridinecarboxamide] the figure was greater than 1000 nM; with `Cc1cnc(-n2cc(C(=O)N[C@H]3CN4CCC3CC4)ccc2=O)s1` [Example 11, N-[(3R)-1-azabicyclo[2.2.2]octan-3-yl]-1-(5-methyl-2-thiazolyl)-6-oxo-3-pyridinecarboxamide], less than 100 nM.
Still for that read-out and setting: then `CCc1cnc(-n2cc(C(=O)N[C@H]3CN4CCC3CC4)ccc2=O)s1` [Example 14, N-[(3R)-1-azabicyclo[2.2.2]octan-3-yl]-1-(5-ethyl-2-thiazolyl)-6-oxo-3-pyridinecarboxamide], with less than 100 nM; and `CC(C)c1cnc(-n2cc(C(=O)N[C@H]3CN4CCC3CC4)ccc2=O)s1` [Example 18, N-[(3R)-1-azabicyclo[2.2.2]octan-3-yl)-6-oxo-1-(5-propan-2-yl-2-thiazolyl)-3-pyridinecarboxamide], with less than 100 nM; and `O=C(NC1CN2CCC1CC2)c1ccc(=O)n(-c2ncc(Cl)s2)c1` (centres unmarked) [Example 26, N-(1-azabicyclo[2.2.2]octan-3-yl)-1-(5-chloro-2-thiazolyl)-6-oxo-3-pyridinecarboxamide], with less than 100 nM.
Same read-out and setting: then `O=C(N[C@@H]1CN2CCC1CC2)c1ccc(=O)n(-c2ncc(Cl)s2)c1` [Example 28, N-[(3S)-1-azabicyclo[2.2.2]octan-3-yl]-1-(5-chloro-2-thiazolyl)-6-oxo-3-pyridinecarboxamide], with greater than 1000 nM; and `Cc1csc(-n2cc(C(=O)NC3CN4CCC3CC4)ccc2=O)n1` (centres unmarked) [Example 30, N-(1-azabicyclo[2.2.2]octan-3-yl)-1-(4-methyl-2-thiazolyl)-6-oxo-3-pyridinecarboxamide], with greater than 1000 nM.
With `Cc1nnc(-n2cc(C(=O)NC3CN4CCC3CC4)ccc2=O)s1` (centres unmarked) [Example 42, N-(1-azabicyclo[2.2.2]octan-3-yl)-1-[5-methyl-1,3,4-thiadiazole-2-yl)-6-oxo-3-pyridinecarboxamide], the EC50 is greater than 1000 nM.

For orientation: EC50 means the concentration at which the effect is half-maximal.

The values are drawn from patent publication US9987259B2 (priority 2011, dated 2018).
